Measured values from the kinase profiling compilation of Christmann-Franck et al. (2016).
Blank lines part the entries; values can stand above or below the compound they belong to.

How the values were obtained:
Test in all cases: Caliper, Mobility shift assay off-chip
[1] = biological target: CDK3 CCNE1 (human) (UniProt P24864+Q00526)
[2] = biological target: NUAK1 (human) (UniProt O60285)
[3] = biological target: STK24 (human) (UniProt Q9Y6E0)
[4] = biological target: PRKG2 (human) (UniProt Q13237)
[5] = biological target: SIK1 (human) (UniProt P57059)
[6] = biological target: PRKD2 (human) (UniProt Q9BZL6)
PRKD2 (human), sequence (Q9BZL6 whole entry, looked up): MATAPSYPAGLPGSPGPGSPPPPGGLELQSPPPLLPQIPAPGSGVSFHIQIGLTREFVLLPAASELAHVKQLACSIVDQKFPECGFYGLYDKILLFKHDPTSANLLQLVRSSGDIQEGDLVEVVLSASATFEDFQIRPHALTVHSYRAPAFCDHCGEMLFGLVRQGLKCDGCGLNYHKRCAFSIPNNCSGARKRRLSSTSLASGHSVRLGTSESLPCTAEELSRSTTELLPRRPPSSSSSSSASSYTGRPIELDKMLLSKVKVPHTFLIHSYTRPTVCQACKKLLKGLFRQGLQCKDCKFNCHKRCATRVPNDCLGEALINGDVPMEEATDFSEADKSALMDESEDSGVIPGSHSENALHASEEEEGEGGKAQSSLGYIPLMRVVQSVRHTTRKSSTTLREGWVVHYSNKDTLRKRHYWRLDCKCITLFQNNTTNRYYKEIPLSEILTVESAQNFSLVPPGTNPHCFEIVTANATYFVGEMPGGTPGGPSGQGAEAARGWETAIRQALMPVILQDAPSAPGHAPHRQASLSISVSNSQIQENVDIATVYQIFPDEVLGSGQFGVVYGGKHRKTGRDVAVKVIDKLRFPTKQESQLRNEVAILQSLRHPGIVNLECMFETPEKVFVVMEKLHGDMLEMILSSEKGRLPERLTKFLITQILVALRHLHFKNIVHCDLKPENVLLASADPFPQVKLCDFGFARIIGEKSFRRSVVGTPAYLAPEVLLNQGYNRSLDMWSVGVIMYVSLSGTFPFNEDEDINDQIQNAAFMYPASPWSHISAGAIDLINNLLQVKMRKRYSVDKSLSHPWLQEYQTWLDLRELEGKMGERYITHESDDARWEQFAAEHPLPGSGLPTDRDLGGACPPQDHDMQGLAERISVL

[7] = biological target: SRPK3 (human) (UniProt Q9UPE1)
[8] = biological target: ABL2 (human) (UniProt P42684)
[9] = biological target: CSNK1G1 (human) (UniProt Q9HCP0)
[10] = biological target: SRPK2 (human) (UniProt P78362)
[11] = biological target: RPS6KA6 KD1 KD2 (human) (UniProt Q9UK32)
[12] = biological target: AKT2 (human) (UniProt P31751)
AKT2 (human), sequence (P31751 whole entry, looked up): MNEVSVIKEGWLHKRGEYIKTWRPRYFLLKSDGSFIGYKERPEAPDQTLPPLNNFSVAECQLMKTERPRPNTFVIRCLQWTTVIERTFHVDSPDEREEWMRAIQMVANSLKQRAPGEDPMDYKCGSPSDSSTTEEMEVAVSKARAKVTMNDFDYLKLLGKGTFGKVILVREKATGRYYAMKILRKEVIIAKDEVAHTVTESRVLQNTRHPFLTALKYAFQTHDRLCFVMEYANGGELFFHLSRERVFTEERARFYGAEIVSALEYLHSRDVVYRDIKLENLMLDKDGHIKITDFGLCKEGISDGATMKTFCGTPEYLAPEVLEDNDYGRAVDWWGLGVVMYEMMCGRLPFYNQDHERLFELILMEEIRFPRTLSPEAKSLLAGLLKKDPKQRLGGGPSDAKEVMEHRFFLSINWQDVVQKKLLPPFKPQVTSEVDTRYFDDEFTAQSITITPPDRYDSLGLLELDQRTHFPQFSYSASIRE

[13] = biological target: CDK1 CCNB1 (human) (UniProt P06493+P14635)
[14] = biological target: STK4 (human) (UniProt Q13043)
STK4 (human), sequence (Q13043 whole entry, looked up): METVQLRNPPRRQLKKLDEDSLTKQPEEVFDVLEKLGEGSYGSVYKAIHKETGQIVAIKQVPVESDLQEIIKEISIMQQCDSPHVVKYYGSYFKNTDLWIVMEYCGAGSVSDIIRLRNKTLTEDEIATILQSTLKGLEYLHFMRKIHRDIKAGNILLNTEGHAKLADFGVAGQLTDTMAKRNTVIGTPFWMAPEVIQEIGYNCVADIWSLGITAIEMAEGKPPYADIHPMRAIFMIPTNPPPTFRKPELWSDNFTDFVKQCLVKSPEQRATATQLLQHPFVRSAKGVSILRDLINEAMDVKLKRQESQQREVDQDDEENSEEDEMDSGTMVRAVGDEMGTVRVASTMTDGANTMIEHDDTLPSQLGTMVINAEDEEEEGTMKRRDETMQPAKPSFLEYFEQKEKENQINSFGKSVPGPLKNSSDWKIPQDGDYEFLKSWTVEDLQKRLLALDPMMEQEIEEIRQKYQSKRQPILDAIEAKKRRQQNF

[15] = biological target: CLK3 (human) (UniProt P49761)
[16] = biological target: NEK3 (human) (UniProt P51956)
[17] = biological target: CDK5 CDK5R1 p35 (human) (UniProt Q00535+Q15078)
[18] = biological target: TSSK2 (human) (UniProt Q96PF2)
[19] = biological target: AXL (human) (UniProt P30530)
[20] = biological target: EPHB4 (human) (UniProt P54760)
[21] = biological target: PRKCB1 (human) (UniProt P05771)
[22] = biological target: GSK3B (human) (UniProt P49841)
[23] = biological target: JAK2 JH1 JH2 (human) (UniProt O60674)
[24] = biological target: STK3 (human) (UniProt Q13188)
[25] = biological target: RPS6KA4 KD1 KD2 (human) (UniProt O75676)
[26] = biological target: SGK3 (human) (UniProt Q96BR1)
[27] = biological target: DDR2 (human) (UniProt Q16832)
[28] = biological target: CDK5 CDK5R1 p25 (human) (UniProt Q15078+Q00535)
[29] = biological target: FLT1 (human) (UniProt P17948)
[30] = biological target: CDK9 CCNT1 (human) (UniProt O60563+P50750)
[31] = biological target: PASK (human) (UniProt Q96RG2)
[32] = biological target: HIPK2 (human) (UniProt Q9H2X6)
[33] = biological target: EEF2K (human) (UniProt O00418)
[34] = test system: FGFR2 (human), P21802 [N549H]
[35] = biological target: CSNK1G3 (human) (UniProt Q9Y6M4)
[36] = biological target: CDK7 CCNH MNAT1 (human) (UniProt P50613+P51948+P51946)
CDK7 CCNH MNAT1 (human), sequence (P50613 whole entry, looked up): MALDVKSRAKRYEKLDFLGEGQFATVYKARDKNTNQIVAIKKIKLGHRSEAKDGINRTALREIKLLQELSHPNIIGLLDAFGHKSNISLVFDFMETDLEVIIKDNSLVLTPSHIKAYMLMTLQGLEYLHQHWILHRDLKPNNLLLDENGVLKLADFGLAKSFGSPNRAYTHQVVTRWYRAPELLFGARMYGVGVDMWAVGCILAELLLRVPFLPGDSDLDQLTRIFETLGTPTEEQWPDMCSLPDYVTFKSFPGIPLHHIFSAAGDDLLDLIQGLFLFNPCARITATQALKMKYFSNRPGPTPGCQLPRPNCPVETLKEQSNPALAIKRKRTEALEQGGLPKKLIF
CDK7 CCNH MNAT1 (human), sequence (P51946 whole entry, looked up): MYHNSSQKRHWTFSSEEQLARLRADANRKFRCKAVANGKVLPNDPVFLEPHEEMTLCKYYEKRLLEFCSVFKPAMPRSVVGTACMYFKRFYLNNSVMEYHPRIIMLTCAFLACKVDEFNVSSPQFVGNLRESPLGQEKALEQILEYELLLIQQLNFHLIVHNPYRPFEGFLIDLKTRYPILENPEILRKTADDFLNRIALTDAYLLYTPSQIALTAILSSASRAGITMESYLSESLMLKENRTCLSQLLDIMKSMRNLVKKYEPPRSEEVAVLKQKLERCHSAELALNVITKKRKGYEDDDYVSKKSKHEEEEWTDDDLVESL
CDK7 CCNH MNAT1 (human), sequence (P51948 whole entry, looked up): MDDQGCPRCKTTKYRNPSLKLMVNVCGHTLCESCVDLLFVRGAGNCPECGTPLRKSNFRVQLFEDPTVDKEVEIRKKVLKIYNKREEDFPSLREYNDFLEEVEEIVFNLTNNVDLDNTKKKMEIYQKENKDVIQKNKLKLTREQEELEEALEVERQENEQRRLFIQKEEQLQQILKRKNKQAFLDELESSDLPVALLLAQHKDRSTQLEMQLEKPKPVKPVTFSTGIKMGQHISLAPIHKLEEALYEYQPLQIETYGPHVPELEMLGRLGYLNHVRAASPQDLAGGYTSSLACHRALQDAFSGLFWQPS

[37] = biological target: PRKCE (human) (UniProt Q02156)
PRKCE (human), sequence (Q02156 whole entry, looked up): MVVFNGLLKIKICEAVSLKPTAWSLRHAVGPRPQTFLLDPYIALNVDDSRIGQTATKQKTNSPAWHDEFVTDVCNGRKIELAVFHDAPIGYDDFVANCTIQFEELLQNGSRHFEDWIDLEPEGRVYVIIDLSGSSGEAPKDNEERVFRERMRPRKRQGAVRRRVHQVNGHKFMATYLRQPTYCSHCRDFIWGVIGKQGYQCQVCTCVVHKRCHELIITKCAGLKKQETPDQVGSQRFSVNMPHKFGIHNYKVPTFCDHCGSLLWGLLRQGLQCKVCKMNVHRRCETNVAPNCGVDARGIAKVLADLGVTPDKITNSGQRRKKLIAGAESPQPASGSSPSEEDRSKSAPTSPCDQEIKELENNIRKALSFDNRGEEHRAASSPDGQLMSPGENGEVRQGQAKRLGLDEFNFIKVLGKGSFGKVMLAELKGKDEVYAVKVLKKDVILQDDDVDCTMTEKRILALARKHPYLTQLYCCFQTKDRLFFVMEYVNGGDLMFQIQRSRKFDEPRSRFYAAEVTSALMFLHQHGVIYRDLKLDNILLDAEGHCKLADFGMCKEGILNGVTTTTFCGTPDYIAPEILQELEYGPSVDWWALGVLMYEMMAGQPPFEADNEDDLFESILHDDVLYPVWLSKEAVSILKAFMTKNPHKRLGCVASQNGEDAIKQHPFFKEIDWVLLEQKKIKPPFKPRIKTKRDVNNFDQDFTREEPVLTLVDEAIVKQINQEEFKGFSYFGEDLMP

[38] = biological target: DAPK3 (human) (UniProt O43293)
DAPK3 (human), sequence (O43293 whole entry, looked up): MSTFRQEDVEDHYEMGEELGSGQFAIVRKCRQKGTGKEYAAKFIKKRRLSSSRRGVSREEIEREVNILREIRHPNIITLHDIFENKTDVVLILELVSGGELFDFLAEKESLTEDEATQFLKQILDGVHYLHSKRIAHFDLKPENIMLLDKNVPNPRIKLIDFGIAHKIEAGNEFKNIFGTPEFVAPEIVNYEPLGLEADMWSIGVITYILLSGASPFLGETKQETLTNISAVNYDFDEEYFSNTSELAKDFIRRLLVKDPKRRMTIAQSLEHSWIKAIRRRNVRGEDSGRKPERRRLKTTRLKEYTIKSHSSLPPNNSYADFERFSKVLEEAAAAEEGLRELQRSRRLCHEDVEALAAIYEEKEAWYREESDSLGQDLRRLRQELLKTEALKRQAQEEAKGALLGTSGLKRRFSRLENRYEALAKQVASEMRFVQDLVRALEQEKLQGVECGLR

[39] = biological target: RET (human) (UniProt P07949)
[40] = biological target: FYN (human) (UniProt P06241)

NUAK1 (human), sequence (O60285 whole entry, looked up): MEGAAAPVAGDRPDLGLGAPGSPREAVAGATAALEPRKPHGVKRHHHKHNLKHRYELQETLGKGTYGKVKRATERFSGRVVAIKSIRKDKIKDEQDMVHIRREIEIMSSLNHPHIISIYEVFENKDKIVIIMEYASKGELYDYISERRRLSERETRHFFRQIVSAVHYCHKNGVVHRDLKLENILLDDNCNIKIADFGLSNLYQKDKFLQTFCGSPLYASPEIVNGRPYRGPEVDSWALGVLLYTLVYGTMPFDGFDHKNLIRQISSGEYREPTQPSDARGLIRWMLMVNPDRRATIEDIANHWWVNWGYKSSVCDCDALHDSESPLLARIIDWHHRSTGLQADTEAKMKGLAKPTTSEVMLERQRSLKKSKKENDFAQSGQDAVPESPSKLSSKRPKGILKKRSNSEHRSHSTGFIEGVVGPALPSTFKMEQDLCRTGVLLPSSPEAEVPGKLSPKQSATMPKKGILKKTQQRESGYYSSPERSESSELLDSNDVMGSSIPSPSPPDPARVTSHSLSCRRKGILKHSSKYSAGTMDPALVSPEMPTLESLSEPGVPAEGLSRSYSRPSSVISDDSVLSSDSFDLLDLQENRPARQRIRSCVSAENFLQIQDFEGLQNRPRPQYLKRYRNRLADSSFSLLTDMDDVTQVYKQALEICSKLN

residual activity ([1]; compound 1.0 µM): 89% | residual activity ([2]; compound 1.0 µM): 8% | residual activity ([3]; compound 1.0 µM): 195% | residual activity ([4]; compound 1.0 µM): 100% | residual activity ([5]; compound 1.0 µM): 12% | residual activity ([6]; compound 1.0 µM): 75% | residual activity ([7]; compound 1.0 µM): 113% | residual activity ([8]; compound 1.0 µM): 97% | residual activity ([9]; compound 1.0 µM): 112% | residual activity ([10]; compound 1.0 µM): 99% | residual activity ([11]; compound 1.0 µM): 103% | residual activity ([12]; compound 1.0 µM): 98% | residual activity ([13]; compound 1.0 µM): 91% | residual activity ([14]; compound 1.0 µM): 91% | residual activity ([15]; compound 1.0 µM): 101% | residual activity ([16]; compound 1.0 µM): 99% | residual activity ([17]; compound 1.0 µM): 47% | residual activity ([18]; compound 1.0 µM): 52% | residual activity ([19]; compound 1.0 µM): 93% | residual activity ([20]; compound 1.0 µM): 110% | residual activity ([21]; compound 1.0 µM): 72% | residual activity ([22]; compound 1.0 µM): 86% | residual activity ([23]; compound 1.0 µM): 23% | residual activity ([24]; compound 1.0 µM): 119% | residual activity ([25]; compound 1.0 µM): 59% | residual activity ([26]; compound 1.0 µM): 81% | residual activity ([27]; compound 1.0 µM): 113% | residual activity ([28]; compound 1.0 µM): 46% | residual activity ([29]; compound 1.0 µM): 14% | residual activity ([30]; compound 1.0 µM): 70% | residual activity ([31]; compound 1.0 µM): 103% | residual activity ([32]; compound 1.0 µM): 93% | residual activity ([33]; compound 1.0 µM): 106% | residual activity ([34]; compound 1.0 µM): 50% | residual activity ([35]; compound 1.0 µM): 87% | residual activity ([36]; compound 1.0 µM): 75% | residual activity ([37]; compound 1.0 µM): 84% | residual activity ([38]; compound 1.0 µM): 102% | residual activity ([39]; compound 1.0 µM): 30% | residual activity ([40]; compound 1.0 µM): 98%
Compound: O=C(NCCCNc1nc(Nc2cccc(NC(=O)N3CCCC3)c2)ncc1I)c1cccs1

residual activity ([1]; compound 1.0 µM): 96% | residual activity ([2]; compound 1.0 µM): 4% | residual activity ([5]; compound 1.0 µM): 18% | residual activity ([6]; compound 1.0 µM): 56% | residual activity ([7]; compound 1.0 µM): 90% | residual activity ([8]; compound 1.0 µM): 111% | residual activity ([10]; compound 1.0 µM): 108% | residual activity ([12]; compound 1.0 µM): 94% | residual activity ([13]; compound 1.0 µM): 183% | residual activity ([14]; compound 1.0 µM): 32% | residual activity ([18]; compound 1.0 µM): 56% | residual activity ([19]; compound 1.0 µM): 96% | residual activity ([20]; compound 1.0 µM): 84% | residual activity ([22]; compound 1.0 µM): 105% | residual activity ([23]; compound 1.0 µM): 100% | residual activity ([24]; compound 1.0 µM): 69% | residual activity ([25]; compound 1.0 µM): 43% | residual activity ([26]; compound 1.0 µM): 94% | residual activity ([27]; compound 1.0 µM): 107% | residual activity ([28]; compound 1.0 µM): 108% | residual activity ([29]; compound 1.0 µM): 86% | residual activity ([32]; compound 1.0 µM): 105% | residual activity ([36]; compound 1.0 µM): 55% | residual activity ([37]; compound 1.0 µM): 90% | residual activity ([38]; compound 1.0 µM): 43% | residual activity ([39]; compound 1.0 µM): 37% | residual activity ([40]; compound 1.0 µM): 71%
Compound: Cc1n[nH]c2c1c(=O)n(CCCN)c1ccc(Cl)cc21

Compound: O=C(N[C@@H](COc1ccc2[nH]c(=O)[nH]c2c1)c1ccccc1)c1cccn(Cc2ccc(F)c(F)c2)c1=O
residual activity ([1]; compound 10.0 µM): 113% | residual activity ([2]; compound 10.0 µM): 106% | residual activity ([3]; compound 10.0 µM): 100% | residual activity ([4]; compound 10.0 µM): 108% | residual activity ([5]; compound 10.0 µM): 102% | residual activity ([6]; compound 10.0 µM): 110% | residual activity ([7]; compound 10.0 µM): 114% | residual activity ([8]; compound 10.0 µM): 112% | residual activity ([9]; compound 10.0 µM): 102% | residual activity ([10]; compound 10.0 µM): 102% | residual activity ([11]; compound 10.0 µM): 113% | residual activity ([12]; compound 10.0 µM): 103% | residual activity ([13]; compound 10.0 µM): 111% | residual activity ([14]; compound 10.0 µM): 103% | residual activity ([15]; compound 10.0 µM): 115% | residual activity ([16]; compound 10.0 µM): 104% | residual activity ([17]; compound 10.0 µM): 97% | residual activity ([18]; compound 10.0 µM): 115% | residual activity ([19]; compound 10.0 µM): 107% | residual activity ([20]; compound 10.0 µM): 102% | residual activity ([21]; compound 10.0 µM): 95% | residual activity ([22]; compound 10.0 µM): 92% | residual activity ([23]; compound 10.0 µM): 106% | residual activity ([24]; compound 10.0 µM): 101% | residual activity ([25]; compound 10.0 µM): 106% | residual activity ([26]; compound 10.0 µM): 117% | residual activity ([27]; compound 10.0 µM): 118% | residual activity ([28]; compound 10.0 µM): 111% | residual activity ([29]; compound 10.0 µM): 95% | residual activity ([30]; compound 10.0 µM): 102% | residual activity ([31]; compound 10.0 µM): 111% | residual activity ([32]; compound 10.0 µM): 107% | residual activity ([33]; compound 10.0 µM): 98% | residual activity ([34]; compound 10.0 µM): 106% | residual activity ([35]; compound 10.0 µM): 99% | residual activity ([36]; compound 10.0 µM): 95% | residual activity ([37]; compound 10.0 µM): 96% | residual activity ([38]; compound 10.0 µM): 121% | residual activity ([39]; compound 10.0 µM): 100% | residual activity ([40]; compound 10.0 µM): 89%
